Results on two compounds are retold here after patent US12532884B2, “Fungicidal compositions” (SYNGENTA CROP PROTECTION AG, priority 2020, dated 2026).

SMILES strings stand for the structures. Values joined by “and” are separate entries in the source; they are usually repeats but may differ in a detail not shown here. Equal entries are not always repeated. Where two headings read alike, the source gives them in different places.

For assay [1], the system named is Corynespora cassiicola. Briefly: Example C5: mixtures against Corynespora cassiicola (target leaf spot), liquid culture. The note with it: Corynespora cassiicola, single component. It is filed as cell-based. The source says: (§1) Certain mixture compositions comprising a compound of formula (I) described above may show a synergistic effect. This occurs whenever the action of an active ingredient combination is greater than the sum of the actions of the individual components. The action to be expected E for a given active ingredient combination obeys the so-called COLBY formula and can be calculated as follows (COLBY, S. R. “Calculating synergistic and antagonistic responses of herbicide combination”. Weeds, Vol. 15, pages 20-22; 1967): • ppm=milligrams of active ingredient (=a.i.) per liter of spray mixture • X=% action by active ingredient A) using p ppm of active ingredient • Y=% action by active ingredient B) using q ppm of active ingredient.
(§2) According to COLBY, the expected (additive) action of active ingredients A)+B) using p+q ppm of active ingredient is:
(§3) If the action actually observed (O) is greater than the expected action (E), then the action of the combination is super-additive, i.e. there is a synergistic effect. In mathematical terms, synergism corresponds to a positive value for the difference of (O-E). In the case of purely complementary addition of activities (expected activity), said difference (O-E) is zero. A negative value of said difference (O-E) signals a loss of activity compared to the expected activity.
(§4) Mycelia fragments or conidia suspensions of a fungus prepared either freshly from liquid cultures of the fungus or from cryogenic storage, are directly mixed into nutrient broth. DMSO solutions of the test compound (max. 10 mg/mL) are diluted with 0.025% Tween20 by a factor of 50 and 10 μl of this solution is pipetted into a microtiter plate (96-well format). The nutrient broth containing the fungal spores/mycelia fragments is then added to give an end concentration of the tested compound. The test plates are incubated in the dark at 24° C. and 96% relative humidity. The inhibition of fungal growth is determined photometrically after 2 to 7 days, depending on the pathosystem, and percent antifungal activity relative to the untreated check is calculated.
Conidia of the fungus from cryogenic storage were directly mixed into nutrient broth (PDB potato dextrose broth). A DMSO solution of the test compounds was placed into a microtiter plate (96-well format) and the nutrient broth containing the fungal spores was added to it. The test plates were incubated at 24 C and the inhibition of growth was determined photometrically after 3-4 days at 620 nm.
The following mixture compositions at the reported concentration (in ppm) in tables C4-3 and C4-4 gave the following disease control in this test (Corynespora cassiicola). Fungicidal activity was evaluated on a 100-0 scale (100=no disease growth; 0=well completely covered by mycelium).

Assay [2] relates to Glomerella lagenarium syn. Colletotrichum lagenarium. Briefly: Example C4: mixtures against Glomerella lagenarium syn. Colletotrichum lagenarium (anthracnose), liquid culture. The note with it: Colletotrichum orbiculare, single component. The assay is classed as cell-based.
Text: as §1, §2, §3, §4
(§5) Conidia of the fungus from cryogenic storage were directly mixed into nutrient broth (PDB potato dextrose broth). A DMSO solution of the test compounds was placed into a microtiter plate (96-well format) and the nutrient broth containing the fungal spores was added to it.
The following mixture compositions at the reported concentration (in ppm) in tables C4-3 and C4-4 gave the following disease control in this test (Glomerella lagenarium syn. Colletotrichum lagenarium). Fungicidal activity was evaluated on a 100-0 scale (100=no disease growth; 0=well completely covered by mycelium).

In assay [3] the test system is Phakopsora pachyrhizi. Nature of the assay: Example D: preventative activity against Phakopsora pachyrhizi on soybean (whole plants sprayed, leaf disks inoculated). The assay is classed as in vivo.
For assay [4], the system named is Puccinia recondita (Brown rust). Nature of the assay: Example B: comparative biological activity against Puccinia recondita (brown rust), curative, wheat leaf segments. The note with it: 8 dpi. The assay is classed as in vivo. The method, then:
Method; Wheat leaf segments are placed on agar in multiwell plates (24-well format). The leaf segments are inoculated with a spore suspension of the fungus and sprayed with test solutions 1 day after inoculation. After appropriate incubation the activity of a compound is assessed 8 dpi (days after inoculation) as curative fungicidal activity.
The data are presented as the percentage of disease control of each compound for the biological tests and testing rates described below in table B1.

Assay [5] relates to Septoria tritici. Briefly: Example C2: mixtures against Septoria tritici (leaf blotch), liquid culture. It is filed as cell-based. The note with it: Zymoseptoria tritici, single component; for inhibition at 0.1 ppm: 100-0 scale (100=no disease growth).
The subject of assay [6] is Mycosphaerella arachidis syn. Cercospora arachidicola. Briefly: Example C1: mixtures against Mycosphaerella arachidis syn. Cercospora arachidicola (brown leaf spot), liquid culture. The assay is classed as cell-based. The note with it: Mycosphaerella arachidis, single component, 100-0 scale (100=no disease growth).
Text: as §1, §2, §3, §4, §5
The following mixture compositions at the reported concentration (in ppm) in tables C1-3 and C1-4 gave the following disease control in this test Mycosphaerella arachidis syn. Cercospora arachidicola (Brown leaf spot of peanut). Fungicidal activity was evaluated on a 100-0 scale (100=no disease growth; 0=well completely covered by mycelium).

The subject of assay [7] is Septoria glycines. Briefly: Example C3: mixtures against Septoria glycines (brown spot), liquid culture. It is filed as cell-based. The note with it: Septoria glycines, single component.

Consider `CO/C=C(\Oc1cc(C2CCCC2)ccc1C)C(=O)OC` [Compound X.02, methyl (Z)-2-(5-cyclopentyl-2-methyl-phenoxy)-3-methoxy-prop-2-enoate], for which the inhibition at 1 ppm in assay [1] (1 ppm) was 20%. Moreover, the inhibition at 0.03 ppm in assay [2] amounted to 0%; in assay [5] (100-0 scale), 0%; in assay [6] (0.03 ppm), 50%; in assay [7] (100-0 scale (100=no disease growth)), 50%. Moreover, the inhibition at 0.1 ppm in assay [2] (0.1 ppm) is 20%; in assay [5], 70%; in assay [7] (0.1 ppm, 100-0 scale (100=no disease growth), read-out: Activity (%)), 70%. Further, the inhibition at 2.25 g/ha in assay [3] (Phakopsora pachyrhizi, foliar, applied alone, 2.25 g/ha, read-out: Observed Activity (% of untreated)) amounted to 13%; in assay [3] (Phakopsora pachyrhizi, foliar, single active ingredient, 2.25 g/ha, read-out: Observed Activity (%)), 14%; in assay [3] (Phakopsora pachyrhizi, foliar, single active ingredient, 2.25 g/ha, soybean, preventative, 100=no disease, read-out: Observed Activity (%)), 23%. Moreover, the inhibition at 4.5 g/ha in assay [3] (Phakopsora pachyrhizi, foliar, applied alone, 4.5 g/ha, read-out: Observed Activity (% of untreated)) turned out to be 20%; in assay [3] (Phakopsora pachyrhizi, foliar, single active ingredient, 4.5 g/ha, read-out: Observed Activity (%)), 22%; in assay [3] (Phakopsora pachyrhizi, foliar, single active ingredient, 4.5 g/ha, soybean, preventative, 100=no disease, read-out: Observed Activity (%)), 33%. The inhibition at 1.13 g/ha in assay [3] (Phakopsora pachyrhizi, foliar, single active ingredient, soybean, preventative, 100=no disease, read-out: Observed Activity (%)) worked out at 1%. Moreover, in assay [3] (Phakopsora pachyrhizi, foliar, single active ingredient, 9 g/ha, read-out: Observed Activity (%)), the inhibition at 9 g/ha came out at 38%. For the same compound, the “control (%)” value in assay [4] (20 ppm) was 0%; in assay [4] (60 ppm), 0%; in assay [4] (200 ppm) it was 100%. The inhibition at 0.03125 ppm in assay [5] (0.03125 ppm, 100-0 scale) amounted to 20%; in assay [6] (0.03125 ppm), 70%; in assay [7] (0.03125 ppm), 70%. Moreover, the inhibition at 0.0625 ppm in assay [5] (0.0625 ppm, 100-0 scale) was 90%.
For `CO/C=C(\Oc1cc(C2CCCCC2)ccc1C)C(=O)OC` [Compound X.04, methyl (Z)-2-(5-cyclohexyl-2-methyl-phenoxy)-3-methoxy-prop-2-enoate], the inhibition at 0.2 ppm in assay [1] (0.2 ppm) was 20%. Besides, the values for the inhibition at 0.03 ppm in assay [2], in assay [5] (100-0 scale) and in assay [7] were 0%, 50% and 70%, respectively. Further, the inhibition at 1.13 g/ha in assay [3] (Phakopsora pachyrhizi, foliar, applied alone, read-out: Observed Activity (% of untreated)) was 20%. In assay [3] (Phakopsora pachyrhizi, foliar, applied alone, 18 g/ha, read-out: Observed Activity (% of untreated)), the inhibition at 18 g/ha was determined as 74%. The “Observed Activity (% of untreated)” value in assay [3] (applied alone, 2.25 g/ha) was 22% and 35% and 17%; in assay [3] (applied alone, 4.5 g/ha) it was 67% and 34% and 49% and 53%; in assay [3] (applied alone, 9 g/ha) it was 81% and 59%. The “control (%)” value was determined as 90% in assay [4] (20 ppm), 100% in assay [4] (60 ppm) and 100% in assay [4] (200 ppm). Further, the inhibition at 0.00625 ppm in assay [5] (0.00625 ppm, 100-0 scale) was 0%; in assay [6] (0.00625 ppm), 0%; in assay [7] (0.00625 ppm) it was 0%. Moreover, the inhibition at 0.025 ppm in assay [5] (0.025 ppm, 100-0 scale) was 70%; in assay [7] (0.025 ppm), 90%. Further, the inhibition at 0.1 ppm in assay [5] was 70%.
